Reference: ChEMBL document CHEMBL1146245, “Antitumor agents. 258. Syntheses and evaluation of dietary antioxidant--taxoid conjugates as novel cytotoxic agents” (2007)
In brackets after ≈: the same amount, converted by molar mass.

How the values were obtained:
Format in all cases: functional
[1] = system: A549; assay: Cytotoxicity against human A549 cells; details: read-out: ED50 (the source's name)
[2] = system: A-431; assay: Cytotoxicity against human A431 cells; details: read-out: ED50 (the source's name)
[3] = Cytotoxicity against MDR human KB-VIN cells expressing P-glycoprotein; details: KBVIN, read-out: ED50 (the source's name)
[4] = system: KB; assay: Cytotoxicity against human KB cells by sulforhodamine B assay; details: read-out: ED50 (the source's name)
[5] = system: HCT-8; assay: Cytotoxicity against human HCT8 cells; details: read-out: ED50 (the source's name)
[6] = system: 1A9; assay: Cytotoxicity against human 1A9 cells by sulforhodamine B assay; details: read-out: ED50 (the source's name)

Q: For `CC(=O)O[C@H]1C(=O)[C@@]2(C)[C@H]([C@H](OC(=O)c3ccccc3)[C@]3(O)C[C@H](OC(=O)[C@H](O)[C@@H](NC(=O)c4ccccc4)c4ccccc4)C(C)=C1C3(C)C)[C@]1(OC(C)=O)CO[C@@H]1C[C@@H]2O` [PACLITAXEL], which EC50 [1] is on record?
A: Its EC50 is 0.02 µg/mL (≈ 0.0234 µM).

Q: What about the EC50 [2] of the same compound?
A: The EC50 was 0.01 µg/mL (≈ 0.0117 µM).

Q: And the EC50 [3]?
A: The EC50 was 0.2 µg/mL (≈ 0.234 µM).

Q: And the EC50 [4]?
A: Its EC50 is 2 ng/mL (≈ 0.00234 µM).

Q: What about the EC50 [5] of the same compound?
A: The EC50 was 0.06 µg/mL (≈ 0.0703 µM).

Q: What about the EC50 [6] of the same compound?
A: The EC50 was 1 ng/mL (≈ 0.00117 µM).
